Test results reported in patent US11566007B2, “Ras inhibitors” (Revolution Medicines, Inc., priority 2019, dated 2023).
Where two headings read alike, the source gives them in different places.

Tests used:
[1] = tested on: NCI-H358 cells (K-Ras G12C); experiment: Potency assay: pERK in NCI-H358 cells; assay type: cell-based, human; settings: Homo sapiens, NCI-H358; H358 KRAS G12C; read-out: pERK EC50
How it was run: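 Inhibition of cellular pERK after a 4 h treatment, detected by AlphaLISA or In-Cell Western. IC50 from a four-parameter concentration-response fit.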

[2] = molecular target: NRAS Q61K (Homo sapiens (Human), UniProt P01111+P62937, Q61K); experiment: Ras-Raf (BRAF RBD) disruption / FRET / MOA assay, NRAS Q61K; assay type: biochemical; settings: NRAS Q61K; Ras-Raf disruption/FRET/MOA assay; read-out: IC50* NRAS Q61K FRET data
How it was run: (§1)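 Compounds (30 μM top final, 10-point 3-fold dilutions) incubated 3 h at 25° C with nucleotide-loaded Ras, cyclophilin A and BRAF RBD. Detection with 10 nM anti-His Eu-W1024 and 50 nM anti-GST allophycocyanin over another 1.5 h. Lowered TR-FRET ratio relative to DMSO wells gives IC50.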

[3] = molecular target: KRAS G12V (Homo sapiens (Human), UniProt P01116+P62937, G12V); experiment: Ras-Raf (BRAF RBD) disruption / FRET / MOA assay, KRAS G12V; assay type: biochemical; settings: read-out: IC50* KRAS G12V FRET data
How it was run: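 A 10-point, 3-fold dilution series topping at 30 μM final was incubated 3 h at 25° C with the Ras/cyclophilin A/BRAF RBD mixture.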

[4] = tested on: NCI-H358 (K-Ras G12C); experiment: CellTiter-Glo cell viability assay, NCI-H358; assay type: cell-based, human; settings: Homo sapiens, NCI-H358, 120 h, class symbols
How it was run: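 Compounds were dispensed directly onto K-Ras mutant cells and incubated until day 5, then plates were equilibrated to room temperature for about 30 minutes before CellTiter-Glo luminescence. Signals were normalized as (sample/average DMSO)*100 and fitted by four-parameter logistic fit.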

[5] = molecular target: KRAS Q61H (Homo sapiens (Human), UniProt P01116+P62937, Q61H); experiment: Ras-Raf (BRAF RBD) disruption / FRET / MOA assay, KRAS Q61H; assay type: biochemical; settings: Ras-Raf disruption/FRET/MOA assay; class symbols; read-out: KRAS Q61H FRET data IC50
How it was run: as §1

[6] = NCI-H358, 5-day treatment, read-out: Additional H358 Cell Viability assay data (K-Ras G12C, IC50)

Chain of KRAS Q61H (P01116-2 other isoform, or with tags, fused parts or gaps Q61H): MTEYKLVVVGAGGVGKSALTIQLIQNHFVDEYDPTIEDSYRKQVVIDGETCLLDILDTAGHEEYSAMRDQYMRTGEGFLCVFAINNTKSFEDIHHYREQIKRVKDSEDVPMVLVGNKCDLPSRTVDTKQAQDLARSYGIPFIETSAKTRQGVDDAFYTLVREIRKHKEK
Chain of KRAS Q61H (P62937 whole entry): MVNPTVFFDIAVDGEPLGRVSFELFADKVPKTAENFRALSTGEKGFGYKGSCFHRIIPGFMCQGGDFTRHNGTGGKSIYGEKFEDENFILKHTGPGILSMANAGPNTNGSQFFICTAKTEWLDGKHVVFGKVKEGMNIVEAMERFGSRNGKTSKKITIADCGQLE
Chain of KRAS G12V (P01116-2 other isoform, or with tags, fused parts or gaps G12V): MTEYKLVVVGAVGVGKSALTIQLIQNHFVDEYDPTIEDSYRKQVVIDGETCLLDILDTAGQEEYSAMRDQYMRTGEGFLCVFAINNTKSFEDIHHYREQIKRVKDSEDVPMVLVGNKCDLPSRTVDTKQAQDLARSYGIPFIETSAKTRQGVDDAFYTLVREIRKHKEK
Chain of KRAS G12V (P62937 whole entry): as the sequence (P62937 whole entry) above
Chain of NRAS Q61K (P01111 whole entry Q61K): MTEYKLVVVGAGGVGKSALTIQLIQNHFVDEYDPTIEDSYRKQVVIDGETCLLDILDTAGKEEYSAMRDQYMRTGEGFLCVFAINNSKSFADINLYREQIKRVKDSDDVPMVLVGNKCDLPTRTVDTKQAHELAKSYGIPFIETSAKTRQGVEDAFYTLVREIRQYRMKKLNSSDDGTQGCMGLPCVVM
Chain of NRAS Q61K (P62937 whole entry): as the sequence (P62937 whole entry) above

Row | SMILES | EC50 [1] [µM] | IC50 [2] [µM] | IC50 [3] [µM] | IC50 [4, 6] [µM] | IC50 [5] [µM] | IC50 ([4]; read-out: Additional H358 Cell Viability assay data (K-Ras G12C, IC50, uM), NCI-H358, 5-day treatment) [µM]
1 | C=CC(=O)N1CC[C@]2(C1)CN(C(=O)N(C)[C@H](C(=O)N[C@H]1Cc3nc(cs3)-c3ccc4c(c3)c(c(-c3cccnc3[C@H](C)OC)n4CC)CC(C)(C)COC(=O)[C@@H]3CCCN(N3)C1=O)C(C)C)CCO2 (atropisomer, axis not shown) [Example A354] | < 5 | 0.01 to 0.1 | 0.1 to 1 | 0.01 to 0.1 | 0.01 to 0.1 | 
2 | C=CC(=O)N1CC[C@H](C(=O)N(C)[C@H](C(=O)N[C@H]2Cc3cc(O)cc(c3)-c3ccc4c(c3)c(c(-c3cccc5c3COC5)n4CC)CC(C)(C)COC(=O)[C@@H]3CCCN(N3)C2=O)C(C)C)C1 [Example A227] | < 5 | 1 to 10 | 1 to 10 | 0.1 to 1 | 1 to 10 | 
3 | C=CC(=O)N1CC[C@]2(C1)OCN([C@H](C(=O)N[C@H]1Cc3cc(cc(C(F)F)c3)-c3ccc4c(c3)c(c(-c3cccnc3[C@H](C)OC)n4CC)CC(C)(C)COC(=O)[C@@H]3CCCN(N3)C1=O)C(C)C)C2=O (atropisomer, axis not shown) [Example A557] | < 5 | 1 to 10 | 1 to 10 | 0.1 to 1 | 0.01 to 0.1 | 
4 | C=CC(=O)N1CCOC2(CCN(C(=O)N(C)[C@H](C(=O)N[C@H]3C[C@H]4CN(CCO4)c4ccc5c(c4)c(c(-c4cccnc4[C@H](C)OC)n5CC)CC(C)(C)COC(=O)[C@@H]4CCCN(N4)C3=O)C(C)C)CC2)C1 [Example A564] | < 5 | 1 to 10 | 0.1 to 1 | 0.01 to 0.1 | 0.1 to 1 | 
5 | C=CC(=O)N1CC[C@H](C(=O)N(C)[C@H](C(=O)N[C@H]2Cc3cccc(n3)-c3ccc4c(c3)c(c(-c3cccnc3[C@H](C)OC)n4CC)CC(C)(C)COC(=O)[C@@H]3CCCN(N3)C2=O)C(C)C)C1 (atropisomer, axis not shown) [Example A442] | < 5 | 1 to 10 | > 10 | 0.01 to 0.1 | 1 to 10 | 
6 | CO[C@@H](C)c1ncccc1-c1c2c3cc(ccc3n1CC(F)(F)F)-c1csc(n1)C[C@H](NC(=O)CCOC1CN(C(=O)C#CC(C)(C)N3CCC3)C1)C(=O)N1CCC[C@H](N1)C(=O)OCC(C)(C)C2 (atropisomer, axis not shown) [Example A363] | < 5 | 1 to 10 | 1 to 10 | 0.01 to 0.1 | 1 to 10 | 
7 | C=CC(=O)N1CC[C@@H]2[C@H](C1)CN2C(=O)N(C)[C@H](C(=O)N[C@H]1Cc2nc(cs2)-c2ccc3c(c2)c(c(-c2cccnc2[C@H](C)OC)n3CC)CC(C)(C)COC(=O)[C@@H]2CCCN(N2)C1=O)C(C)C (atropisomer, axis not shown) [Example A688] | < 5 | 0.1 to 1 | 1 to 10 | 0.1 to 1 | 0.1 to 1 | 
8 | C=CC(=O)N1CC[C@H](C(=O)N(C)[C@H](C(=O)N[C@H]2Cc3cc(ccn3)-c3ccc4c(c3)c(c(-c3cccnc3COC)n4CC)CC(C)(C)COC(=O)[C@@H]3CCCN(N3)C2=O)C(C)C)C1 [Example A136] | < 5 | > 10 | > 10 | > 1 | 1 to 10 | 
9 | CCn1c(-c2cccnc2[C@H](C)OC)c2c3cc(ccc31)-c1csc(n1)C[C@H](NC(=O)[C@H](C(C)C)N(C)C(=O)N1CCC13CN(C(=O)/C=C/CN(C)C)C3)C(=O)N1CCC[C@H](N1)C(=O)OCC(C)(C)C2 (atropisomer, axis not shown) [Example A598] | < 5 | 0.01 to 0.1 | 0.1 to 1 | 0.01 to 0.1 | < 0.01 | 
10 | C=CC(=O)N1CC[C@H](C(=O)N(C)[C@H](C(=O)N[C@H]2Cc3cc(O)cc(c3)-c3ccc4c(c3)c(c(-c3ncn(C)c3[C@H](C)OC)n4CC)CC(C)(C)COC(=O)[C@@H]3CCCN(N3)C2=O)C(C)C)C1 [Example A301] | < 5 | > 10 | 1 to 10 |  | 1 to 10 | 0.1 to 1
11 | C=CC(=O)N(C)[C@@H]1C[C@H](C)N(C(=O)N(C)[C@H](C(=O)N[C@H]2Cc3nc(cs3)-c3ccc4c(c3)c(c(-c3cccnc3[C@H](C)OC)n4CC)CC(C)(C)COC(=O)[C@@H]3CCCN(N3)C2=O)C(C)C)C1 (atropisomer, axis not shown) [Example A633] | < 5 | 0.01 to 0.1 | 0.1 to 1 | 0.01 to 0.1 | 0.01 to 0.1 | 
12 | C=CC(=O)N1CCOC2(CCN(C(=O)N(C)[C@H](C(=O)N[C@H]3Cc4cccc(n4)-c4ccc5c(c4)c(c(-c4cccnc4[C@H](C)OC)n5CC(F)(F)F)CC(C)(C)COC(=O)[C@@H]4CCCN(N4)C3=O)C(C)C)CC2)C1 (atropisomer, axis not shown) [Example A607, 4-acryloyl-N-((2S)-1-(((6^3S,4S)-1^2-(2-((S)-1-methoxyethyl)pyridin-3-yl)-10,10-dimethyl-5,7-dioxo-1^1-(2,2,2-trifluoroethyl)-6^1,6^2,6^3,6^4,6^5,6^6-hexahydro-1^1H-8-oxa-1(5,3)-indola-6(1,3)-pyridazina-2(2,6)-pyridinacycloundecaphane-4-yl)amino)-3-methyl-1-oxobutan-2-yl)-N-methyl-1-oxa-4,9-diazaspiro[5.5]undecane-9-carboxamide] | < 5 | 0.1 to 1 | 1 to 10 | 0.01 to 0.1 | 0.1 to 1 | 
13 | C=CC(=O)N1CC(OC[C@H](C(=O)N[C@H]2C[C@H]3CN(CCO3)c3ccc4c(c3)c(c(-c3cccnc3[C@H](C)OC)n4CC(F)(F)F)CC(C)(C)COC(=O)[C@@H]3CCCN(N3)C2=O)C(C)C)C1 (atropisomer, axis not shown) [Example A723] | < 5 | > 10 | 1 to 10 | 0.01 to 0.1 | 1 to 10 | 
14 | C=CC(=O)N1CC2(CCN(C(=O)N(C)[C@H](C(=O)N[C@H]3Cc4cccc(c4)-c4ccc5c(c4)c(c(-c4cccnc4[C@H](C)OC)n5CC)CC(C)(C)COC(=O)[C@@H]4CCCN(N4)C3=O)C(C)C)CC2)C1 (atropisomer, axis not shown) [Example A680] | < 5 | 0.1 to 1 | 0.1 to 1 | 0.01 to 0.1 | 0.1 to 1 | 
15 | CCn1c(-c2cccnc2[C@H](C)OC)c2c3cc(ccc31)-c1csc(n1)C[C@H](NC(=O)[C@H](C(C)C)N(C)C(=O)N1CCCOC13CN(C(=O)C#CC(C)(C)N(C)C)C3)C(=O)N1CCC[C@H](N1)C(=O)OCC(C)(C)C2 (atropisomer, axis not shown) [Example A666] | < 5 | > 10 | > 10 | 0.01 to 0.1 | 1 to 10 | 
16 | C=CC(=O)N(C)[C@@H]1C[C@@H](C)N(C(=O)N(C)[C@H](C(=O)N[C@H]2Cc3nc(cs3)-c3ccc4c(c3)c(c(-c3cccnc3[C@H](C)OC)n4CC)CC(C)(C)COC(=O)[C@@H]3CCCN(N3)C2=O)C(C)C)C1 (atropisomer, axis not shown) [Example A634] | < 5 | 0.1 to 1 | 0.1 to 1 | 0.01 to 0.1 | 0.1 to 1 | 
17 | C=CC(=O)N1CCCC2(CCN(C(=O)N(C)[C@H](C(=O)N[C@H]3Cc4nc(cs4)-c4ccc5c(c4)c(c(-c4cccnc4[C@H](C)OC)n5CC)CC(C)(C)COC(=O)[C@@H]4CCCN(N4)C3=O)C(C)C)CC2)C1 (atropisomer, axis not shown) [Example A635] | < 5 | 0.1 to 1 | 0.1 to 1 | 0.1 to 1 | 0.1 to 1 | 
